According to patent EP1816136A1, “GPR7-SELECTIVE LIGAND AND USE THEREOF” (BANYU PHARMACEUTICAL CO., LTD., priority 2004, dated 2006):
Non-standard residues stand in square brackets, D forms with d. Residues, ends and D or L forms follow the SMILES beside them. Ava = NCCCCC(=O)O

Assays:
GPR8 [1] = target: T1, GPR8 (Homo sapiens, UniProt P48146); experiment: Binding inhibition test with [125I]-[Phe2]-hNPW(1-23), GPR8 membrane preparation; details: Table 1, membrane preparation of HEK293/CRE-BLA cells expressing GPR8, 1 hour at room temperature
T1 construct: expressed in transfected cells; host or cells: HEK293/CRE-BLA cells (AURORA), expression vector pIRES-hygro (Clontech)
Procedure: (§1) One nmol of [Phe2]-hNPW(1-23) (prepared in Synthesis Example 19) was dissolved in 5 µL of anhydrous DMSO, and the solution was mixed with 0.1M nickel chloride. Then, the mixture was mixed with 10 µL of a 0.00 1 % aqueous solution of hydrogen peroxide, 10 µL of an enzyme solution (lactoperoxidase (Sigma) adjusted to 10 µg/mL with a 0.1M HEPES buffer solution), and 37 Mbq/10 µL of Iodine-125 (Amersham), whereafter the resulting mixture was reacted for 60 minutes at room temperature. The reaction was terminated with the addition of 10 µL of 1% sodium azide, and then a radiolabeled peptide fraction was collected by a PD-10 gel filtration column (Amersham) to obtain [^125I]-[Phe2]-hNPW(1-23).
(§2) A cDNA sequence coding for human GPR7 or GPR8 [see Genomics, vol. 28, p. 84 (1995)] was amplified by the PCR method, and cloned using the expression vector pIRES-hygro (Clontech). The resulting expression vector was transfected into HEK293/CRE-BLA cells (AURORA) using the cationic lipid method [see Proceedings of the National Academy of Sciences of the United States of America, vol. 84, p. 7413 (1987)] to obtain GPR7 or GPR8 expression cells.
(§3) A membrane preparation prepared from the cells expressing GPR7 or GPR8 was incubated for 1 hour at room temperature in an assay buffer solution (25 mM Tris buffer solution, 150 mM NaCl, pH 7.4) together with a test compound and 28,000 cpm of [^125I]-[Phe2]-hNPW(1-23). Then, the system was filtered through the glass filter GF/C. After washing with 25 mM Tris buffer solution (pH 7.4), radioactivity on the glass filter was measured. Nonspecific binding was measured in the presence of 1 µM hNPW (prepared in Synthesis Example 1), and the 50% inhibition concentration (IC50 value) of the test compound against [Phe2]-hNPW(1-23) specific binding was calculated [see Molecular Pharmacology, vol. 55, 1101 (1999)].

GPR7 [2] = target: T2, GPR7 (Homo sapiens, UniProt P48145); experiment: Binding inhibition test with [125I]-[Phe2]-hNPW(1-23), GPR7 membrane preparation; details: Table 1, membrane preparation of HEK293/CRE-BLA cells expressing GPR7, 1 hour at room temperature
T2 construct: expressed in transfected cells; host or cells: HEK293/CRE-BLA cells (AURORA), expression vector pIRES-hygro (Clontech)
T2 sequence (P48145 1-328): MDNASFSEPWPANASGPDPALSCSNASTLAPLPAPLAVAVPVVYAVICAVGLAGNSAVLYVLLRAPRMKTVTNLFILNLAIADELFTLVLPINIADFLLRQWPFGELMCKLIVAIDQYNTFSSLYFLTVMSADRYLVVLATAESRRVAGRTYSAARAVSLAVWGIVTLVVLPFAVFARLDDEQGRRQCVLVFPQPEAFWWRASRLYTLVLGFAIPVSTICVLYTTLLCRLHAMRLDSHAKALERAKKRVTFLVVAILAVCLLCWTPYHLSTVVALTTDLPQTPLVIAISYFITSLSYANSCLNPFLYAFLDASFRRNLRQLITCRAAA
Procedure: as §1, §2, §3

GPR8 [3] = target: T1, GPR8; experiment: Measurement of activation capacity on GPR8 (CRE-BLA beta-lactamase reporter assay); format: cell-based; details: Table 1; HEK293/CRE-BLA cells expressing GPR8; forskolin 1 µM; 3 hours at 37°C; read-out: GPR8 (nM) EC 50
Text: as §2
(§4) In accordance with the method of Zlakarmik (see Science, 1998, vol. 279, p. 84), the activity of various synthetic peptides on GPR7 or GPR8 was measured. HEK293/CRE-BLA cells which expressed GPR7 or GPR8 (prepared in (2) of Test Example 1) were washed twice with PBS(-) buffer solution (GIBCO-BRL), and then Cell-dissociation buffer (GIBCO-BRL) was added. The system was kept at 37°C for 3 minutes in a CO2 incubator, and a culture flask was tapped to liberate the cells from the flask. After the cells were harvested by centrifugation, the cells were suspended in an Opti-MEM culture medium (GIBCO-BRL) containing 0.1 % BSA (Sigma) to count the cells and prepare a cell suspension containing 8×10^5 cells/mL. To 2 µL of a DMSO solution containing each test compound with a concentration of 50 times an end concentration, 50 µL of the 0.1% BSA-containing Opti-MEM medium incorporating forskolin (Sigma) so as to have an end concentration of 1 µM was added to form a reaction solution. To this reaction solution, 50 µL of the above cell suspension was added to initiate the reaction, and the system was incubated for 3 hours at 37°C in a CO2 incubator.
(§5) Then, using a BLA assay kit (AURORA), a coloring matter-introduced buffer solution incorporating 12 µL of Solution A [1 mM CCF2-AM/anhydrous DMSO solution], 120 µL of Solution B [100 mg/mL Pluronic 127, 0.1% acetic acid/DMSO solution], and 2 mL of Solution C [24% (w/w) PEG-400, 18% TR40/H2O] was prepared. This coloring matter-introduced buffer solution (20 µL) was added to the above-mentioned cell reaction mixture to introduce a β-lactamase substrate (CCF2-AM) into the cells. After the system was allowed to stand for 1 hour at room temperature, the fluorescence intensities of the sample at an excitation wavelength of 409 nm, at a fluorescence wavelength of 460 nm (a β-lactamase hydrolyzate of CCF), and at 530 nm (CCF) were measured. With β-lactamase activity (fluorescence intensity at 460 nm/fluorescence intensity at 530 nm) as an indicator, the activity of each of various peptides on GPR7 or GPR8 was measured, and the 50% effective concentration (EC50) of the test compound was calculated.

GPR7 [4] = target: T2, GPR7; experiment: Measurement of activation capacity on GPR7 (CRE-BLA beta-lactamase reporter assay); format: cell-based; details: Table 1; HEK293/CRE-BLA cells expressing GPR7; forskolin 1 µM; 3 hours at 37°C
Text: as §2, §4, §5

T1 sequence (P48146 whole entry): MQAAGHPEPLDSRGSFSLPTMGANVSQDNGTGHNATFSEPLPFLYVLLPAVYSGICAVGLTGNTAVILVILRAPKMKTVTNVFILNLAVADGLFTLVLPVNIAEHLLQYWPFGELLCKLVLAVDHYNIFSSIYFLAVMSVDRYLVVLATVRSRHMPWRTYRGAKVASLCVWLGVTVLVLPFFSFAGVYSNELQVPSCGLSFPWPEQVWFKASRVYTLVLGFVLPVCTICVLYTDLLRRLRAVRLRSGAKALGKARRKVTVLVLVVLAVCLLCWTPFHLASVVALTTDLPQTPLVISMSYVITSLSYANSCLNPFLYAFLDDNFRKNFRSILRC

Row | IC50 (GPR8 [1]) [nM] | IC50 (GPR7 [2]) [nM] | EC50 (GPR8 [3]) [nM] | EC50 (GPR7 [4]) [nM] | SMILES
1 | 24 | 0.23 | 0.86 | 0.24 | CC(C)C[C@H](NC(=O)CNC(=O)[C@H](CO)NC(=O)[C@H](CC(C)C)NC(=O)[C@H](CC(C)C)NC(=O)CNC(=O)[C@H](C)NC(=O)[C@H](C)NC(=O)[C@H](CCCNC(=N)N)NC(=O)CNC(=O)[C@@H](NC(=O)[C@H](CO)NC(=O)[C@H](Cc1ccc(O)cc1)NC(=O)[C@H](CO)NC(=O)[C@H](CO)NC(=O)[C@H](Cc1cnc[nH]1)NC(=O)CNC(=O)[C@H](C)NC(=O)[C@H](C)NC(=O)[C@@H]1CCCN1C(=O)[C@H](CCCCN)NC(=O)[C@H](Cc1ccc(O)cc1)NC(=O)[C@@H](N)Cc1c[nH]c2ccccc12)C(C)C)C(N)=O [compound 4]
2 | 310 | 0.55 | 280 | 1.7 | CC(C)C[C@H](NC(=O)CNC(=O)[C@H](CO)NC(=O)[C@H](CC(C)C)NC(=O)[C@H](CC(C)C)NC(=O)CNC(=O)[C@H](C)NC(=O)[C@H](C)NC(=O)[C@H](CCCNC(=N)N)NC(=O)CNC(=O)CCCCNC(=O)[C@H](CCCCN)NC(=O)[C@H](Cc1ccc(O)cc1)NC(=O)[C@@H](N)Cc1c[nH]c2ccccc12)C(N)=O [compound 5] (H-WYK[Ava]GRAAGLLSGL-NH2)
3 | 300 | 0.47 | 94 | 2.2 | CC(C)C[C@H](NC(=O)CNC(=O)[C@H](CO)NC(=O)[C@H](CC(C)C)NC(=O)[C@H](CC(C)C)NC(=O)CNC(=O)[C@H](C)NC(=O)[C@H](C)NC(=O)[C@H](CCCNC(=N)N)NC(=O)CNC(=O)CCCCNC(=O)CCCCNC(=O)[C@H](CCCCN)NC(=O)[C@H](Cc1ccc(O)cc1)NC(=O)[C@@H](N)Cc1c[nH]c2ccccc12)C(N)=O [compound 6] (H-WYK[Ava][Ava]GRAAGLLSGL-NH2)
4 | 260 | 0.09 | 77 | 0.48 | CC(C)C[C@H](NC(=O)CNC(=O)[C@H](CO)NC(=O)[C@H](CC(C)C)NC(=O)[C@H](CC(C)C)NC(=O)CNC(=O)[C@H](C)NC(=O)[C@H](C)NC(=O)[C@H](CCCNC(=N)N)NC(=O)CNC(=O)CCCCNC(=O)CCCCNC(=O)CCCCNC(=O)[C@H](CCCCN)NC(=O)[C@H](Cc1ccc(O)cc1)NC(=O)[C@@H](N)Cc1c[nH]c2ccccc12)C(N)=O [compound 7] (H-WYK[Ava][Ava][Ava]GRAAGLLSGL-NH2)
5 | 360 | 1.1 | 51 | 1.2 | CC(C)C[C@H](NC(=O)CNC(=O)[C@H](CO)NC(=O)[C@H](CC(C)C)NC(=O)[C@H](CC(C)C)NC(=O)CNC(=O)[C@H](C)NC(=O)[C@H](C)NC(=O)[C@H](CCCNC(=N)N)NC(=O)CNC(=O)CCCCNC(=O)CCCCNC(=O)CCCCNC(=O)CCCCNC(=O)[C@H](CCCCN)NC(=O)[C@H](Cc1ccc(O)cc1)NC(=O)[C@@H](N)Cc1c[nH]c2ccccc12)C(N)=O [compound 8] (H-WYK[Ava][Ava][Ava][Ava]GRAAGLLSGL-NH2)
